Reference: US4409210A, “Antibiotic compound” (priority 1982, dated 1983)

Experiments:
Format in all cases: cell-based
[1] = test system: Peptostreptococcus intermedius A21881; test: MIC, serial two-fold dilution method (anaerobic); conditions: Peptostreptococcus intermedius A21881; GAM agar medium; inoculum 10^7-10^8
[2] = test system: Bacillus anthracis IID-115; test: microbe, parasite or virus in culture; conditions: Bacillus anthracis IID-115; Mueller-Hinton agar; inoculum 10^4
[3] = test system: Bacteroides fragilis A22053; test: MIC, serial two-fold dilution method (anaerobic); conditions: Bacteroides fragilis A22053; GAM agar medium; inoculum 10^7-10^8
[4] = test system: Veillonella alcalescens A21914-1; test: MIC, serial two-fold dilution method (anaerobic); conditions: Veillonella alcalescens A21914-1; GAM agar medium; inoculum 10^7-10^8
[5] = test system: Staphylococcus aureus A9856; test: MIC, serial two-fold dilution method (aerobic); conditions: Staphylococcus aureus A9856; Mueller-Hinton agar; inoculum 10^4
[6] = test system: Bacteroides fragilis CUH-9; test: MIC, serial two-fold dilution method (anaerobic); conditions: Bacteroides fragilis CUH-9; GAM agar medium; inoculum 10^7-10^8
[7] = test system: Staphylococcus aureus 209P; test: MIC, serial two-fold dilution method (aerobic); conditions: Staphylococcus aureus 209P; Mueller-Hinton agar; inoculum 10^4
[8] = test system: Propionibacterium acnes A21953; test: MIC, serial two-fold dilution method (anaerobic); conditions: Propionibacterium acnes A21953; GAM agar medium; inoculum 10^7-10^8
[9] = test system: Peptostreptococcus anaerobius A21905; test: MIC, serial two-fold dilution method (anaerobic); conditions: Peptostreptococcus anaerobius A21905; GAM agar medium; inoculum 10^7-10^8
[10] = test system: Bacteroides fragilis A20926; test: MIC, serial two-fold dilution method (anaerobic); conditions: Bacteroides fragilis A20926; GAM agar medium; inoculum 10^7-10^8
[11] = test system: Staphylococcus aureus A22421; test: MIC, serial two-fold dilution method (aerobic); conditions: Staphylococcus aureus A22421; Mueller-Hinton agar; inoculum 10^4
[12] = test system: Clostridium difficile A21675; test: MIC, serial two-fold dilution method (anaerobic); conditions: Clostridium difficile A21675; GAM agar medium; inoculum 10^7-10^8
[13] = test system: Clostridium difficile A21972; test: MIC, serial two-fold dilution method (anaerobic); conditions: Clostridium difficile A21972; GAM agar medium; inoculum 10^7-10^8
[14] = test system: Clostridium chauvoei A9561; test: MIC, serial two-fold dilution method (anaerobic); conditions: Clostridium chauvoei A9561; GAM agar medium; inoculum 10^7-10^8
[15] = test system: Clostridium septicum A21869; test: MIC, serial two-fold dilution method (anaerobic); conditions: Clostridium septicum A21869; GAM agar medium; inoculum 10^7-10^8
[16] = test system: Propionibacterium acnes A22650; test: MIC, serial two-fold dilution method (anaerobic); conditions: Propionibacterium acnes A22650; GAM agar medium; inoculum 10^7-10^8
[17] = test system: Veillonella parvula A20010; test: MIC, serial two-fold dilution method (anaerobic); conditions: Veillonella parvula A20010; GAM agar medium; inoculum 10^7-10^8
[18] = test system: Clostridium ramosum A21970; test: MIC, serial two-fold dilution method (anaerobic); conditions: Clostridium ramosum A21970; GAM agar medium; inoculum 10^7-10^8
[19] = test system: Bacteroides fragilis CUH-24; test: MIC, serial two-fold dilution method (anaerobic); conditions: Bacteroides fragilis CUH-24; GAM agar medium; inoculum 10^7-10^8
[20] = test system: Fusobacterium varium ATCC 8501; test: MIC, serial two-fold dilution method (anaerobic); conditions: Fusobacterium varium ATCC 8501; GAM agar medium; inoculum 10^7-10^8
[21] = test system: Staphylococcus aureus Smith; test: MIC, serial two-fold dilution method (aerobic); conditions: Staphylococcus aureus Smith; Mueller-Hinton agar; inoculum 10^4
[22] = test system: Staphylococcus aureus A20610; test: MIC, serial two-fold dilution method (aerobic); conditions: Staphylococcus aureus A20610; Mueller-Hinton agar; inoculum 10^4
[23] = test system: Bacteroides fragilis A21900; test: MIC, serial two-fold dilution method (anaerobic); conditions: Bacteroides fragilis A21900; GAM agar medium; inoculum 10^7-10^8
[24] = test system: Fusobacterium nucleatum A21906; test: MIC, serial two-fold dilution method (anaerobic); conditions: Fusobacterium nucleatum A21906; GAM agar medium; inoculum 10^7-10^8
[25] = test system: Fusobacterium necrophorum A20013; test: MIC, serial two-fold dilution method (anaerobic); conditions: Fusobacterium necrophorum A20013; GAM agar medium; inoculum 10^7-10^8
[26] = test system: Escherichia coli NIHJ; test: MIC, serial two-fold dilution method (aerobic); conditions: Escherichia coli NIHJ; Mueller-Hinton agar; inoculum 10^4

## Amphomycin
[1]
  minimum inhibitory concentration (MIC): 6.3 µg/mL
[2]
  minimum inhibitory concentration (MIC): 0.8 µg/mL
[3]
  minimum inhibitory concentration (MIC): > 100 µg/mL
[4]
  minimum inhibitory concentration (MIC): 25 µg/mL
[5]
  minimum inhibitory concentration (MIC): 3.1 µg/mL
[6]
  minimum inhibitory concentration (MIC): > 100 µg/mL
[7]
  minimum inhibitory concentration (MIC): 3.1 µg/mL
[8]
  minimum inhibitory concentration (MIC): 6.3 µg/mL
[9]
  minimum inhibitory concentration (MIC): 3.1 µg/mL
[10]
  minimum inhibitory concentration (MIC): 50 µg/mL
[11]
  minimum inhibitory concentration (MIC): 3.1 µg/mL
[12]
  minimum inhibitory concentration (MIC): 3.1 µg/mL
[13]
  minimum inhibitory concentration (MIC): 25 µg/mL
[14]
  minimum inhibitory concentration (MIC): 6.3 µg/mL
[15]
  minimum inhibitory concentration (MIC): 6.3 µg/mL
[16]
  minimum inhibitory concentration (MIC): 6.3 µg/mL
[17]
  minimum inhibitory concentration (MIC): 6.3 µg/mL
[18]
  minimum inhibitory concentration (MIC): 25 µg/mL
[19]
  minimum inhibitory concentration (MIC): > 100 µg/mL
[20]
  minimum inhibitory concentration (MIC): 25 µg/mL
[21]
  minimum inhibitory concentration (MIC): 3.1 µg/mL
[22]
  minimum inhibitory concentration (MIC): 3.1 µg/mL
[23]
  minimum inhibitory concentration (MIC): 25 µg/mL
[24]
  minimum inhibitory concentration (MIC): 6.3 µg/mL
[25]
  minimum inhibitory concentration (MIC): > 100 µg/mL
[26]
  minimum inhibitory concentration (MIC): > 100 µg/mL
